Measurements taken from patent US20090325270A1, “USE OF 2-HYDROXY-5-OXOPROLINE IN CONJUNCTION WITH ALGAE” (priority 2008, published 2009).

Tested on: pale-green mutant Nannochloropsis
Assay: Growth of algae cultures treated with 2-hydroxy-5-oxoproline (Example One, FIG. 3)
Assay type: cell-based
Excerpt: At step 130, the pale-green mutant Nannochloropsis may be cultivated in an aqueous environment having an effective amount of 2-hydroxy-5-oxoproline. The effective amount of 2-hydroxy-5-oxoproline may increase the growth rate of the pale-green mutant Nannochloropsis.
1. Light intensity was 600 micro-Einsteins.
2. Temperature was held constant at 25 C.
3. Cultures were inoculated to the same extent (as determined by optical density at […], O.D. 750).
4. The bicarb controls were used because the AB1 chemical, which is the 2-hydroxy-5-oxoproline compound, was dissolved in a bicarbonate buffer. This control was to make sure that differences in growth were not due to the presence of bicarbonate. The bicarb controls contain the same concentration of bicarbonate as the AB1 flasks.
5. The cultures were grown on urea as the nitrogen-source.
The bicarb controls were inoculated with 10 mls of 1.3 M bicarbonate solution (pH 9.5). The AB-1 treated cultures had approximately 0.1 g of 2-hydroxy-5-oxoproline added with the algal inoculum. No treat 2 had approximately 50% more cells inoculated as no treat 1, bicarb 1 and 2 and the AB-1 cultures. […] The difference in slope between the AB-1 cultures and the no-treat 1 and bicarb controls was approximately 50%-60%. Therefore, by feeding 2-hydroxy-5-oxoproline to pale-green mutant Nannochloropsis, a greater growth rate could be achieved, which would allow high cell density cultures to be produced quicker, so the advantages of the pale-green phenotype over the wild-type become apparent.

SMILES: O=C1CC[C@@](O)(C(=O)O)N1 [AB-1, 2-hydroxy-5-oxoproline]
- difference in slope (growth) between the AB-1 cultures and the no-treat 1 and bicarb controls (approximately 0.1 g 2-hydroxy-5-oxoproline added with inoculum to 800 mls media, approximately 300 hours, constant illumination 600 micro-Einsteins, 25 C, urea as nitrogen-source): 50%-60%
- growth compared with no treat 2 (approximately 50% more cells inoculated) (approximately 0.1 g 2-hydroxy-5-oxoproline in 800 mls media, approximately 300 hours): grew as if they had been inoculated with more cells than had actually been added
- faster growth than culture without 2-hydroxy-5-oxoproline (as measured by absorbance at 750 nm, effective amount of 2-hydroxy-5-oxoproline): fifty to sixty
